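Results reflect a 48-hour exposure of cells in 96-well plates to compound at five concentrations. Here, GI50 denotes the concentration required for 50% inhibition of growth.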 Active and inactive are the calls of the source. No stated cut-off is given here; in the data, active = GI50 up to about 1.1 µM and inactive = higher.
Assays:
Experiment in all cases: NCI anticancer screen, dose series, 48 h
786-0 = tested on: 786-0
A549 = tested on: A549
ACHN = tested on: ACHN
CAKI-1 = tested on: CAKI-1
CCRF-CEM = tested on: CCRF-CEM
DLD-1 = tested on: DLD-1
DMS-114 = tested on: DMS-114
EKVX = tested on: EKVX
HCC 2998 = tested on: HCC 2998
HCT-116 = tested on: HCT-116
HCT-15 = tested on: HCT-15
HL-60 = tested on: HL-60
HOP-18 = tested on: HOP-18
HOP-62 = tested on: HOP-62
HOP-92 = tested on: HOP-92
HT-29 = tested on: HT-29
IGROV-1 = tested on: IGROV-1
K562 = tested on: K562
KM12 = tested on: KM12
LOX IMVI = tested on: LOX IMVI
LXFL 529 = tested on: LXFL 529
M14 = tested on: M14
M19-MEL = tested on: M19-MEL
MOLT-4 = tested on: MOLT-4
Malme-3M = tested on: Malme-3M
NCI-H226 = tested on: NCI-H226
NCI-H23 = tested on: NCI-H23
NCI-H460 = tested on: NCI-H460
NCI-H522 = tested on: NCI-H522
OVCAR-3 = tested on: OVCAR-3
OVCAR-4 = tested on: OVCAR-4
OVCAR-5 = tested on: OVCAR-5
OVCAR-8 = tested on: OVCAR-8
RPMI-8226 = tested on: RPMI-8226
RXF 393 = tested on: RXF 393
RXF 631 = tested on: RXF 631
SF-268 = tested on: SF-268
SF-295 = tested on: SF-295
SF-539 = tested on: SF-539
SK-MEL-28 = tested on: SK-MEL-28
SK-MEL-2 = tested on: SK-MEL-2
SK-MEL-5 = tested on: SK-MEL-5
SK-OV-3 = tested on: SK-OV-3
SN12C = tested on: SN12C
SNB-19 = tested on: SNB-19
SNB-78 = tested on: SNB-78
SR = tested on: SR
SW-620 = tested on: SW-620
TK-10 = tested on: TK-10
U-251 = tested on: U-251
UACC-257 = tested on: UACC-257
UACC-62 = tested on: UACC-62
UO-31 = tested on: UO-31
XF498 = tested on: XF498

Compound: CC(=O)/C(=C\C1=CCCO1)C(=O)Nc1ccccc1C
- GI50 (786-0): > 100 µM (inactive)
- GI50 (A549): > 100 µM (inactive)
- GI50 (ACHN): > 100 µM (inactive)
- GI50 (CAKI-1): > 100 µM (inactive)
- GI50 (CCRF-CEM): > 100 µM (inactive)
- GI50 (DLD-1): > 100 µM (inactive)
- GI50 (DMS-114): > 100 µM (inactive)
- GI50 (EKVX): > 100 µM (inactive)
- GI50 (HCC 2998): > 100 µM (inactive)
- GI50 (HCT-116): > 100 µM (inactive)
- GI50 (HCT-15): > 100 µM
- GI50 (HL-60): > 100 µM (inactive)
- GI50 (HOP-18): > 100 µM (inactive)
- GI50 (HOP-62): > 100 µM (inactive)
- GI50 (HOP-92): > 100 µM (inactive)
- GI50 (HT-29): > 100 µM (inactive)
- GI50 (IGROV-1): > 100 µM (inactive)
- GI50 (K562): > 100 µM (inactive)
- GI50 (KM12): > 100 µM (inactive)
- GI50 (LOX IMVI): > 100 µM (inactive)
- GI50 (LXFL 529): > 100 µM (inactive)
- GI50 (M14): > 100 µM (inactive)
- GI50 (M19-MEL): > 100 µM (inactive)
- GI50 (MOLT-4): > 100 µM (inactive)
- GI50 (Malme-3M): > 100 µM (inactive)
- GI50 (NCI-H226): > 100 µM (inactive)
- GI50 (NCI-H23): > 100 µM (inactive)
- GI50 (NCI-H460): > 100 µM (inactive)
- GI50 (NCI-H522): > 100 µM (inactive)
- GI50 (OVCAR-3): > 100 µM (inactive)
- GI50 (OVCAR-4): > 100 µM (inactive)
- GI50 (OVCAR-5): > 100 µM (inactive)
- GI50 (OVCAR-8): > 100 µM (inactive)
- GI50 (RPMI-8226): > 100 µM (inactive)
- GI50 (RXF 393): > 100 µM (inactive)
- GI50 (RXF 631): > 100 µM (inactive)
- GI50 (SF-268): > 100 µM (inactive)
- GI50 (SF-295): > 100 µM (inactive)
- GI50 (SF-539): > 100 µM (inactive)
- GI50 (SK-MEL-28): > 10 µM (inactive)
- GI50 (SK-MEL-2): > 100 µM (inactive)
- GI50 (SK-MEL-5): > 100 µM (inactive)
- GI50 (SK-OV-3): > 100 µM (inactive)
- GI50 (SN12C): > 100 µM (inactive)
- GI50 (SNB-19): > 100 µM (inactive)
- GI50 (SNB-78): > 100 µM (inactive)
- GI50 (SR): > 100 µM (inactive)
- GI50 (SW-620): > 100 µM (inactive)
- GI50 (TK-10): > 100 µM (inactive)
- GI50 (U-251): > 100 µM (inactive)
- GI50 (UACC-257): > 100 µM (inactive)
- GI50 (UACC-62): > 100 µM (inactive)
- GI50 (UO-31): > 100 µM (inactive)
- GI50 (XF498): > 100 µM (inactive)

From ChEMBL document CHEMBL1201862, “PubChem BioAssay data set” (2004)
